The compounds below were run on HUFEC (assay: Cell Migration Assay (CMA) Test, inhibitory rate with control (-) correction). Conditions: Homo sapiens, 24 h, 125 μl of 0.32 mM sample solution in 4.0 ml medium, 80% or more = remarkable.
Format: cell-based, human
Protocol: (§1) Samples were prepared using the present compounds of Compound No. I-60 through I-315. More specifically, 32 μl of a 20 mM sample solution dissolved in dimethylsulfoxide (DMSO) were removed and brought to a volume of 1 ml with phosphate-buffered saline (PBS) to prepare a sample solution having a concentration of 0.32 mM (containing 3.2% DMSO).
After disseminating the 7th subculture of […] obtained from the first generation at 4 ml/well (3.0×10^5 cells/well) in a collagen-coated 6-well plate (NUNC), the cells were cultured for 48 hours at 37° C. in the presence of 5% CO2. The cells reached nearly a completely confluent state as a result of this culturing.
A double-edged, disposable razor blade was divided into four sections, of which one of those sections was pinched between a pair of forceps. Using this piece of razor blade, the cell surface in the above confluent state was scraped off.
After washing the surface of the wells from which the cells had been scraped off with medium, 4.0 ml of fresh M199 (2+) medium were placed in the wells. 4.0 ml of M199 medium were added to the control (-) well.
125 μl of sample solution (0.32 mM, containing 3.2% dimethylsulfoxide) were added to the wells.
125 μl of PBS solution containing 3.2% dimethylsulfoxide were added to the control wells instead of sample. The cells were cultured for 24 hours at 37° C. in the presence of 5% CO2. After discarding the culture liquid, the cells were fixed for 30 minutes with methanol. Next, after […] the cells for 4 hours with Giemsa stain, the plates were washed with tap water and air dried.
Measurement of cell migration was performed by microscopically counting the number of cells that had newly migrated within the range of a 1 mm×1 mm block. […] The total number of cells counted in blocks 1 through 5 were then totaled to determine the overall total number of cells. Four fields were counted for each well.
Evaluation was performed determining the cell migration inhibitory rate (%) according to the following equation.
Inhibitory rate=100-((number of migrating cells to which sample was added-number of migrating cells of control (-))×100/(number of migrating cells of control (+)-number of migrating cells of control (-)))
If this inhibitory rate was 80% or more, cell migration was assessed as being remarkable.

Compound | inhibition at 320 µM (stock) [%]
CCCN(C)C(=O)O[C@@H]1OC=C(C(=O)OC)[C@H]2CC[C@H](C)[C@@H]12 [I-193] | 5.3
CCN1CCN(C(=O)O[C@@H]2OC=C(C(=O)OC)[C@H]3CC[C@H](C)[C@@H]23)CC1 [I-200] | 25
COC(=O)C1=CO[C@@H](OC(=O)NCc2nc3ccccc3[nH]2)[C@@H]2C(C)=CC[C@H]12 [I-131] | 19.5
COC(=O)C1=CO[C@@H](OC(=O)NCc2ccncc2)[C@@H]2C(C)=CC[C@H]12 [I-116] | 5.6
COC(=O)C1=CO[C@@H](OC(=O)N2CC=CCC2)[C@@H]2C(C)=CC[C@H]12 [I-91] | 21.6
C[C@]12O[C@H]1C[C@@H]1C(C(=O)O)=CO[C@@H](OC(=O)NCCCl)[C@@H]12 [I-66] | 30.5
CCCCCC[C@]12O[C@H]1C[C@@H]1C(C(=O)OC)=COC[C@@H]12 [I-298] | 7.8
COC(=O)C1=CO[C@@H](OC(=O)NCc2ccc(OC)cc2)[C@H]2[C@@H]1CC[C@@H]2C [I-186] | 6.3
COC(=O)C1=CO[C@@H](OC(=O)NCCc2ccccn2)[C@H]2[C@@H]1CC[C@@H]2C [I-182] | 3.9
COC(=O)C1=CO[C@@H](OC(=O)NCCS)[C@@H]2C(C)=CC[C@H]12 [I-134] | 7.1
COC(=O)C1=CO[C@@H](OC(=O)NN2CCN(C)CC2)[C@@H]2C(C)=CC[C@H]12 [I-73] | 15.6
COC(=O)C1=CO[C@@H](OC(=O)NC2Cc3ccccc3C2)[C@@H]2C(C)=CC[C@H]12 [I-145] | 27.3
COC(=O)C1=CO[C@@H](OC(=O)Nc2ccccc2)[C@@H]2C(C)=CC[C@H]12 [I-170] | 6.7
COC(=O)C1=CO[C@@H](OC(=O)NCCc2ccc(F)cc2)[C@@H]2C(C)=CC[C@H]12 [I-107] | 31.2
COCCCNC(=O)O[C@@H]1OC=C(C(=O)OC)[C@H]2CC[C@H](C)[C@@H]12 [I-226] | 17.2
CCN1CCN(C(=O)O[C@@H]2OC=C(C(=O)OC)[C@H]3CC=C(C)[C@@H]23)CC1 [I-95] | 9.8
CCOC(=O)CCCNC(=O)O[C@@H]1OC=C(C(=O)OC)[C@H]2CC[C@H](C)[C@@H]12 [I-237] | 6.9
C[C@@H]1CC[C@@H]2C(C(=O)N3CCN(CCO)CC3)=COC[C@H]12 [I-305] | 7.6
COC(=O)C1=CO[C@@H](OC(=S)N(C)C)[C@H]2[C@@H]1C[C@@H]1O[C@]21C [I-284] | 32.5
COC(=O)C1=CO[C@@H](OC(=O)Nc2cccc(C#N)c2)[C@H]2[C@@H]1CC[C@@H]2C [I-267] | 14.9

What follows are compounds tested on human umbilical-vein endothelial cells (HUVEC) (assay: Tube Formation Assay (TFA) Test, HUVEC in collagen gel). Conditions: Homo sapiens, HUVEC, Tables 75-83; 0.32 mM sample solution; method as for Compounds 1 through 60; read-out: TFA Inhibition rate (%).
Format: cell-based
Protocol: Furthermore, the sample liquids of compounds used in the CPA and CMA tests were prepared in the manner described below. Firstly, after weighing out each compound, a calculated amount of DMSO was added. After dissolving the compound in the DMSO, phosphate buffered physiological saline (PBS (-)) was added to bring the sample concentration to 1 mg/ml in PBS (-). The amount of DMSO used to dissolve the compounds was adjusted in advance to that the concentration of DMSO at that time was 5%. The resulting liquids were diluted 10-fold with 5% DMSO-PBS (-) solution to prepare sample solutions having a concentration of 0.1 mg/ml. In the TFA test, 320 μl of the prepared 1 mg/ml sample solutions were removed followed by addition of 680 μl of PBS (-) to prepare samples having a concentration of […]. Moreover, 100 μl of this solution was removed followed by addition of 900 μl of PBS (-) to dilute 10-fold and prepare samples having a concentration of 1 μg/ml. P [Cell Proliferation Assay (CPA) Test]
To begin with, 8 volumes of Type 1-A cell matrix (manufactured by Gibco Co.), 1 volume of 10×M119, and 1 volume of reconstituted buffer [200 mM HEPES, 0.05 N sodium hydroxide, 260 mM sodium bicarbonate] were slowly mixed under cooling with ice while avoiding bubbling to form a collagen gel. This collagen gel was distributed in a NUNC 24-well plate at 310 μl/well followed by allowing to stand undisturbed for 2 hours at 37° C. to solidify the gel.
Next, the 7th subculture of HUVEC (1×10^5 cells/ml) obtained from the first generation in the same manner as above were disseminated at 500 μl/well. The cells were cultured for 2 hours at 37° C. to allow the cells to make contact with the collagen. After then removing the medium by aspiration, 50 μl of sample solution were added followed by addition of 310 μl/well of freshly prepared collagen gel and culturing for 1 hour and 10 minutes at 37° C. to solidify the double-layer gel.
1 ml/well of M-199 medium containing 20% FCS, 30 ng /ml of b-FGF and 0.1 μM PMA were added to the wells followed by culturing for 20 hours at 37° C. in the presence of 5% CO2.
Measurement of the lengths of the formed tubes was performed using the public domain NIH Image with a computer.
Evaluation was performed by calculating the inhibition rate (%) of tube formation according to the following formula.
Inhibition rate (%)=100-((formed tube length in presence of sample-formed tube length in presence of control (-))×100/(formed tube length in presence of control (+)-formed tube length in presence of control (-)))
as §1
The testing method used for these compounds was the same as that used for the compounds of Compound No. 1 through 60 previously described.

Compound | inhibition at 320 µM (stock) [%]
CCCN(C)C(=O)O[C@@H]1OC=C(C(=O)OC)[C@H]2CC[C@H](C)[C@@H]12 [I-193] | 6.7
CCN1CCN(C(=O)O[C@@H]2OC=C(C(=O)OC)[C@H]3CC[C@H](C)[C@@H]23)CC1 [I-200] | 5.6
COC(=O)C1=CO[C@@H](OC(=O)NCc2nc3ccccc3[nH]2)[C@@H]2C(C)=CC[C@H]12 [I-131] | 7.2
COC(=O)C1=CO[C@@H](OC(=O)NCc2ccncc2)[C@@H]2C(C)=CC[C@H]12 [I-116] | 6.9
COC(=O)C1=CO[C@@H](OC(=O)N2CC=CCC2)[C@@H]2C(C)=CC[C@H]12 [I-91] | 5.1
C[C@]12O[C@H]1C[C@@H]1C(C(=O)O)=CO[C@@H](OC(=O)NCCCl)[C@@H]12 [I-66] | 19.7
CCCCCC[C@]12O[C@H]1C[C@@H]1C(C(=O)OC)=COC[C@@H]12 [I-298] | 9.5
COC(=O)C1=CO[C@@H](OC(=O)NCc2ccc(OC)cc2)[C@H]2[C@@H]1CC[C@@H]2C [I-186] | 5.5
COC(=O)C1=CO[C@@H](OC(=O)NCCc2ccccn2)[C@H]2[C@@H]1CC[C@@H]2C [I-182] | 9.6
COC(=O)C1=CO[C@@H](OC(=O)NCCS)[C@@H]2C(C)=CC[C@H]12 [I-134] | 8.6
COC(=O)C1=CO[C@@H](OC(=O)NN2CCN(C)CC2)[C@@H]2C(C)=CC[C@H]12 [I-73] | 8.2
COC(=O)C1=CO[C@@H](OC(=O)NC2Cc3ccccc3C2)[C@@H]2C(C)=CC[C@H]12 [I-145] | 17.5
COC(=O)C1=CO[C@@H](OC(=O)Nc2ccccc2)[C@@H]2C(C)=CC[C@H]12 [I-170] | 12.9
COC(=O)C1=CO[C@@H](OC(=O)NCCc2ccc(F)cc2)[C@@H]2C(C)=CC[C@H]12 [I-107] | 4.4
COCCCNC(=O)O[C@@H]1OC=C(C(=O)OC)[C@H]2CC[C@H](C)[C@@H]12 [I-226] | 15.3
CCN1CCN(C(=O)O[C@@H]2OC=C(C(=O)OC)[C@H]3CC=C(C)[C@@H]23)CC1 [I-95] | 4.5
CCOC(=O)CCCNC(=O)O[C@@H]1OC=C(C(=O)OC)[C@H]2CC[C@H](C)[C@@H]12 [I-237] | 7.8
C[C@@H]1CC[C@@H]2C(C(=O)N3CCN(CCO)CC3)=COC[C@H]12 [I-305] | 23.1
COC(=O)C1=CO[C@@H](OC(=S)N(C)C)[C@H]2[C@@H]1C[C@@H]1O[C@]21C [I-284] | 23.1
COC(=O)C1=CO[C@@H](OC(=O)Nc2cccc(C#N)c2)[C@H]2[C@@H]1CC[C@@H]2C [I-267] | 5.8

— patent publication US6225478A, “Iridoid derivatives and neovascularization inhibitors containing the same as active ingredient” (Tsumura & Co., priority 1999, dated 2001)
